The results in this text go back to PubChem BioAssay AID200 (DTP/NCI, 2004).

Molecules are shown by their SMILES. Values joined by “and” are separate entries in the source; they are usually repeats but may differ in a detail not shown here. Equal values may be shown once. Inconclusive results and toxic doses are left out. Where a SMILES comes first, the peptide text is derived from it. [ ]: non-standard residue; d: D form. The star is where a group is joined. Cbz = O=C(OCc1ccccc1)*; Nva = CCC[CH](N)C(=O)O

For the assay, the system named is B6C3F1 mice, B16 melanoma ip, median survival T/C. Kind of assay: NCI In Vivo Anticancer Drug Screen. Data for tumor model B16 Melanoma (intraperitoneal) in B6C3F1 mice. The note with it: endpoint: median survival time, schedule: Q01DX009 (ip), higher = longer survival. A digest of the protocol:
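Transplantable tumor in mice; treated vs vehicle control groups; survival or tumor size measured; value = T/C ratio.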

The mark [1] stands for this setting: dose: 6.25 mg/kg/injection, vehicle: saline.
Setting [2] is: dose: 12.5 mg/kg/injection, vehicle: saline.
Setting [3] is: dose: 25.0 mg/kg/injection, vehicle: saline.
Where [4] appears, read: dose: 50.0 mg/kg/injection, vehicle: saline.
Setting [5] is: dose: 50.0 mg/kg/injection, vehicle: saline with Tween-80.
[6] abbreviates: dose: 100.0 mg/kg/injection, vehicle: saline with Tween-80.
Setting [7] is: dose: 100.0 mg/kg/injection, vehicle: Klucel (hydroxypropylcellulose) (HPC).
[8] abbreviates: dose: 200.0 mg/kg/injection, vehicle: Klucel (hydroxypropylcellulose) (HPC).
The mark [9] stands for this setting: dose: 100.0 mg/kg/injection, vehicle: saline.
The mark [10] stands for this setting: dose: 200.0 mg/kg/injection, vehicle: saline.
[11] abbreviates: dose: 400.0 mg/kg/injection, vehicle: Klucel (hydroxypropylcellulose) (HPC).
Where [12] appears, read: dose: 12.5 mg/kg/injection, vehicle: saline with Tween-80.
Setting [13] is: dose: 25.0 mg/kg/injection, vehicle: saline with Tween-80.
Where [14] appears, read: dose: 200.0 mg/kg/injection, vehicle: saline with Tween-80.
Setting [15] is: dose: 0.5 mg/kg/injection, vehicle: distilled water + Tween-80.
The mark [16] stands for this setting: dose: 1.0 mg/kg/injection, vehicle: distilled water + Tween-80.

Take `CCOC(=O)NC1CCc2cc(OC)c(OC)c(OC)c2-c2ccc(OC)c(=O)cc21` (centres undefined): the T/C runs as follows: (dose: 1.5 mg/kg/injection, vehicle: Klucel (hydroxypropylcellulose) (HPC)) 152 % of control; (dose: 2.5 mg/kg/injection, vehicle: Klucel (hydroxypropylcellulose) (HPC)) 150 % of control and 152 % of control; (dose: 4.16 mg/kg/injection, vehicle: Klucel (hydroxypropylcellulose) (HPC)) 154 % of control.

For the compound `N=C(N)SCc1c2ccccc2c(CSC(=N)N)c2ccccc12`, the T/C is 156 % of control under setting [1], 181 % of control under setting [2], 228 % of control under setting [3] and 320 % of control under setting [4].

With `Cc1cccc2c1CC(C(C)C)C2` (centres undefined), the T/C under setting [5] is 105 % of control and the T/C under setting [6] was 93 % of control.

Consider `N[C@@H](Cc1ccc(O)c(O)c1)C(=O)O`, for which the T/C reads like this: (dose: 50.0 mg/kg/injection, vehicle: suspension in saline) 94 % of control; (dose: 100.0 mg/kg/injection, vehicle: suspension in saline) 110 % of control; (dose: 200.0 mg/kg/injection, vehicle: suspension in saline) 100 % of control; (dose: 400.0 mg/kg/injection, vehicle: suspension in saline) 101 % of control and 104 % of control; (dose: 800.0 mg/kg/injection, vehicle: suspension in saline) 93 % of control and 105 % of control; (dose: 1200.0 mg/kg/injection, vehicle: suspension in saline) 97 % of control. Also, the T/C (dose: 1600.0 mg/kg/injection, vehicle: suspension in saline) is 100 % of control.

Consider `O=c1[nH]cc(O)c(=O)[nH]1`, for which the T/C runs as follows: (dose: 50.0 mg/kg/injection, vehicle: Klucel (hydroxypropylcellulose) (HPC)) 102 % of control; under setting [7], 96 % of control; under setting [8], 103 % of control.

For `O=S(O)O`, the T/C is, setting by setting: under setting [4], 107 % of control; under setting [9], 115 % of control; under setting [10], 98 % of control; (dose: 400.0 mg/kg/injection, vehicle: saline) 102 % of control.

As for `CCC/C(=N/NC(N)=O)C(OC)OC`, the T/C is, setting by setting: (dose: 37.5 mg/kg/injection, vehicle: saline) 110 % of control; (dose: 75.0 mg/kg/injection, vehicle: saline) 98 % of control; (dose: 150.0 mg/kg/injection, vehicle: saline) 106 % of control.

Consider `CC[C@]1(O)C[C@H]2CN(CCc3c([nH]c4ccccc34)[C@@](C(=O)OC)(c3cc4c(cc3OC)N(C)[C@H]3[C@@](O)(C(=O)OC)[C@H](OC(C)=O)[C@]5(CC)C=CCN6CC[C@]43[C@@H]65)C2)C1`, for which the T/C runs as follows: (dose: 0.12 mg/kg/injection, vehicle: saline) 194 % of control; (dose: 0.12 mg/kg/injection, vehicle: water) 161 % of control; (dose: 0.25 mg/kg/injection, vehicle: saline) 234 % of control; (dose: 0.25 mg/kg/injection, vehicle: water) 171 % of control and 199 % of control and 221 % of control; (dose: 0.5 mg/kg/injection, vehicle: saline) 215 % of control; (dose: 0.5 mg/kg/injection, vehicle: water) 176 % of control and 212 % of control and 309 % of control. Also, the T/C is 159 % of control (dose: 15.62 micrograms/kg/injection, vehicle: water); 154 % of control (dose: 31.25 micrograms/kg/injection, vehicle: water); 180 % of control (dose: 62.5 micrograms/kg/injection, vehicle: water); 206 % of control (dose: 125.0 micrograms/kg/injection, vehicle: water); 206 % of control (dose: 250.0 micrograms/kg/injection, vehicle: water).

In the case of `NCC(=O)NC(Cc1ccc(O)cc1)C(=O)O` (centres undefined) (HELM PEPTIDE1{G.[O=C(O)C(Cc1ccc(O)cc1)N[*:1]]}$$$$V2.0), the T/C is 110 % of control under setting [9] and 123 % of control under setting [10].

As for `Nc1ncn(C2OC(CO)C(O)C2O)c(=O)n1` (centres undefined), the T/C by setting is: (dose: 0.37 mg/kg/injection, vehicle: saline) 106 % of control; (dose: 0.75 mg/kg/injection, vehicle: saline) 111 % of control; (dose: 1.5 mg/kg/injection, vehicle: saline) 112 % of control; (dose: 6.0 mg/kg/injection, vehicle: saline) 114 % of control; under setting [1], 105 % of control; (dose: 12.0 mg/kg/injection, vehicle: saline) 112 % of control. Moreover, the T/C is 112 % of control under setting [2]; 117 % of control and 119 % of control under setting [3]; 116 % of control and 117 % of control (2×) under setting [4]; 153 % of control under setting [10].

For `CCCC(NC(=O)CNC(=O)CNC(=O)OCc1ccccc1)C(=O)O` (centres undefined) (HELM PEPTIDE1{[O=C(OCc1ccccc1)[*:2]].G.G.[CCCC(N[*:1])C(=O)O]}$$$$V2.0), the T/C runs as follows: under setting [7], 105 % of control; under setting [8], 103 % of control; under setting [11], 112 % of control.

Turning to `COC(=O)[C@@]12OC[C@]34[C@H]([C@@H](O)[C@@H]1O)[C@@]1(C)CC(=O)C(OC(=O)CC(=O)OC5=C(C)[C@@H]6C[C@H]7OC(=O)[C@H](OC(=O)/C=C(\C)C(C)C)[C@H]8[C@]9(C(=O)OC)OC[C@]78[C@H]([C@@H](O)[C@@H]9O)[C@@]6(C)CC5=O)=C(C)[C@@H]1C[C@H]3OC(=O)[C@H](OC(=O)/C=C(\C)C(C)C)[C@@H]24`, the T/C (dose: 1.5 mg/kg/injection, vehicle: saline + Tween-80 + alcohol) was 154 % of control.

As to `O=C1CN(CN2CCOCC2)C(=O)CN1CN1CCOCC1`, the T/C reads like this: under setting [12], 88 % of control; under setting [13], 94 % of control; under setting [5], 93 % of control; under setting [6], 102 % of control; under setting [14], 100 % of control.

For `C[n+]1c(-c2cccc(OCCOCCOc3cccc(-c4c5cc(N)ccc5c5ccc(N)cc5[n+]4C)c3)c2)c2cc(N)ccc2c2ccc(N)cc21`, the T/C runs as follows: (dose: 0.25 mg/kg/injection, vehicle: distilled water + Tween-80) 99 % of control; under setting [15], 107 % of control; under setting [16], 117 % of control.

`CCCC(NC(=O)OCc1ccccc1)C(=O)NC(CCSC)C(=O)O` (centres undefined) (Cbz-[Nva]-Met-OH; configuration not given here): the T/C by setting is: under setting [7], 100 % of control; under setting [8], 104 % of control; under setting [11], 96 % of control.

Take `NCC1CCC(C(=O)O)CC1` (centres undefined): the T/C was 102 % of control under setting [12]; 101 % of control under setting [13]; 101 % of control under setting [5]; 101 % of control under setting [6]; 94 % of control under setting [14].

Regarding `CC(=O)OCC12C3CC(=O)OC1C(OC(=O)C=C(C)C)C1C(C)=CC(=O)C(OC(C)=O)C1(C)C2C(=O)C(OC(C)=O)C3C` (centres undefined), the T/C reads like this: under setting [15], 93 % of control; under setting [16], 101 % of control; (dose: 2.0 mg/kg/injection, vehicle: distilled water + Tween-80) 118 % of control; (dose: 4.0 mg/kg/injection, vehicle: distilled water + Tween-80) 93 % of control; (dose: 8.0 mg/kg/injection, vehicle: distilled water + Tween-80) 98 % of control.
